The subject of one data set is tumor cells. The data set can be described thus: in vivo confocal imaging of PARPi-fl in tumor cells (cell population drug kinetics). An excerpt: Concentration rapidly increases after a bolus dose followed by a slow decay (top).
A short description of data set [1]: clearance from circulation and metabolic stability after IV injection. The class given is in vivo, mice.
The target in another data set is T1, PARP1 (Homo sapiens, UniProt P09874).
T1 construct: endogenous in cells; host or cells: FaDu (human hypopharyngeal SCC, ATCC) subcutaneous xenografts in athymic nude mice
The data set can be described thus: correlation of PARPi-fl fluorescence with PARP1 antibody staining in FaDu tumor sections. The class given is in vivo. The settings on record: nuclear area, 222 pairs. The method, then:
222 xy pairs pooled from n=3 tumor sections.
Next, 10 μm cryosections were fixed in 4% paraformaldehyde for 8 minutes, followed by blocking with 3% (v/v) goat serum (Sigma-Aldrich, St. Louis, Mo.) in PBS. Antibodies were diluted in 1% (w/v) BSA and 0.3% (v/v) Triton X-100 in PBS. Anti-PARP1 primary antibody (sc-7150, Santa Cruz Biotechnology, Santa Cruz, Calif.) was incubated overnight at 4° C. (1 μg/ml), followed by three 10-minute washes with PBS and incubation with secondary AlexaFluor® 680 goat anti-rabbit antibody (A21076, Molecular Probes, Eugene, Oreg.) for 1 hour at 4° C. (2 μg/ml). After another 5-minute PBS wash, sections were mounted with Mowiol® (Sigma-Aldrich, St. Louis, Mo.) containing Hoechst 33342 DNA Stain (Sigma-Aldrich, St. Louis, Mo.). […] Incubating sections with either a nonspecific rabbit IgG or PBS instead of primary antibody confirmed binding specificity.

Another data set concerns FaDu tumors. The data set can be described thus: fluorescence endomicroscopy of excised FaDu tumors and control tissues. It is filed as in vivo, mice. The note with it: 90 minutes after PARPi-fl injection. As to the method:
FaDu xenografts were imaged with a fluorescence endoscope that is available for both clinical and preclinical imaging (Cellvizio, Mauna Kea Technologies, Paris, France). It provides cellular to subcellular resolution and has a flexible confocal microprobe that enables versatile imaging. […] The microprobe was slowly moved over the tumor, tongue, or muscle, while a real-time video was recorded using a 488 nm excitation beam. The videos were converted to grayscale and the intensity was measured in 10 frames per video using ImageJ 1.49e Software. Topical application of PARPi-fl

Data set [2] concerns orthotopic tongue tumors (FaDutdTomato). The data set can be described thus: topical application of PARPi-fl on orthotopic tongue tumors, confocal microscopy. The settings on record: one minute application. The class given is in vivo, mice. The method, then: For topical application, the tongues were dipped into a well of a 96-well plate filled with the respective incubation solution. […] This was followed by cleaning of the tongue with an alcohol pad to remove residual unbound compound. The animals were imaged in the IVIS Spectrum before and after PARPi-fl application using the appropriate filter sets for detection of PARPi-fl and the tdTomato fluorescent protein. Spectral unmixing was used to separate the signals for tdTomato, PARPi-fl and autofluorescence. The tdTomato fluorescent protein allows in vivo localization of the tumor. For comparability, all images were scaled to the same maximum radiant efficiency. Imaging was repeated with sections of the excised tongues after cryofixation. […] Adjacent sections were H&E stained for morphological evaluation.

The next data set has as its system U87 cells. The data set can be described thus: MTT assay. The class given is cell-based. The settings on record: U87 glioblastoma cells. For orientation: Tetrazolium dyes change colour on reduction, which living cells bring about.
For the next data set, the system named is U251 cells. The data set can be described thus: MTT assay. It is filed as cell-based. The note with it: U251 glioblastoma cells.
Data set [3] in a line: toxicity after local administration on the oral mucosa. It is filed as in vivo. The settings on record: mice. The method, then: […]. Mice received blood draws after 24 h and 48 h post administration, and were then sacrificed to receive a full necropsy.
The subject of the next data set is Ca127 cells. The data set can be described thus: flow cytometry of PARPi-fl uptake with and without irradiation. It is filed as cell-based, human. The method, then:
(§1) First, cells were irradiated with 0, 2, 4 and 10 Gy in 25 cm^2 culture flasks using the J.L. Shepherd Cesium irradiator (J.L. Shepherd, San Fernando, Calif.) at a dose rate of 174 cGy/min. […] Following a wash with PBS, cells were trypsinized, counted, and portions of 0.5×10^6 cells of the single cell suspension were aliquoted into 1.5 ml Eppendorf tubes (Eppendorf, Hamburg, Germany). For each time point and irradiation dose, samples were either left unstained, were stained with PARPi-fl or olaparib/PARPi-fl. […] For staining, cells were washed with 1 ml FACS buffer (1% BSA (w/v) in PBS). […] Next, cells were centrifuged, the supernatant was aspirated and cells were re-suspended in 0.5 ml FACS buffer and transferred to 5 ml round bottom flow cytometry tubes (BD Biosciences, Bedford, Mass.) through a 40 μm strainer to remove doublets and left on ice until measurement in the flow cytometer (LSR® II, BD Biosciences, Bedford, Mass.). For each measurement, 10,000 events were counted. Raw data were processed in FlowJo software in order to calculate the changes in PARPi-fl uptake after irradiation. Cell clumps and debris were eliminated using the corresponding gates (forward and side scatter) for the unstained cell population. The gates were applied to all stained samples. PARPi-fl fluorescence was imaged in the FITC channel against side scatter (area).
For orientation: Flow cytometry measures light scatter and fluorescence of single cells or particles in a stream.

A further data set relates to FaDu cells. Described as above. It is filed as cell-based, human. As to the method:
as §1

For data set [4] the following is noted: cited from earlier work.
For another data set, the system named is subcutaneous FaDu tumors. The data set can be described thus: ex vivo epifluorescence imaging of PARPi-fl uptake, subcutaneous FaDu xenografts and normal tissues.
Data set [5] is described as follows: pharmacokinetic profile of ^18F-PARPi in a tumor-free mouse. The class given is in vivo. As to the method: Bone uptake amounts for 6% ID/g. While low, imaging in larger mammals typically reduces bone-uptake further due to slower metabolic degradation.
The blood half-life, serum stability, and metabolic stability of ^18F-PARPi was determined. Blood half-lives were determined after the injection of ˜15 μCi of the ^18F-labeled species into C57BL/6J (B6) mice and blood (5-10 μL) drawn at different time points via saphenous vein bleeds. FIGS. 13A-13B show an image acquired at 60 minutes. The drawn blood was both counted as well as analyzed using a HPLC-MS equipped with both a fluorescence detector as well as a parallel radiodetector. Organs were homogenized. Next, the bimodal imaging agent was extracted and radioactive/fluorescent metabolites were analyzed using HPLC. All major organs were weighed, and their […] activity was measured using a scintillation counter. The injected dose per gram tissue (% ID/g) was determined.

Setting [6] is: oral mucosa, 20 μl of 400 μM solution.
Where [7] appears, read: topical oral mucosa, 29 nmol in 50 μL, 10 min.
Setting [8] is: 48 hours after 10 Gy irradiation.
Setting [9] is: non-irradiated, olaparib co-incubated with PARPi-fl (50-fold excess).

The values below come from patent US20230065522A1 (Memorial Sloan Kettering Cancer Center, priority 2015, published 2023).

As a reminder, the IC50 is the concentration needed to halve the response being measured. A high value points to weaker potency.

T1 sequence (P09874 whole entry, species assumed): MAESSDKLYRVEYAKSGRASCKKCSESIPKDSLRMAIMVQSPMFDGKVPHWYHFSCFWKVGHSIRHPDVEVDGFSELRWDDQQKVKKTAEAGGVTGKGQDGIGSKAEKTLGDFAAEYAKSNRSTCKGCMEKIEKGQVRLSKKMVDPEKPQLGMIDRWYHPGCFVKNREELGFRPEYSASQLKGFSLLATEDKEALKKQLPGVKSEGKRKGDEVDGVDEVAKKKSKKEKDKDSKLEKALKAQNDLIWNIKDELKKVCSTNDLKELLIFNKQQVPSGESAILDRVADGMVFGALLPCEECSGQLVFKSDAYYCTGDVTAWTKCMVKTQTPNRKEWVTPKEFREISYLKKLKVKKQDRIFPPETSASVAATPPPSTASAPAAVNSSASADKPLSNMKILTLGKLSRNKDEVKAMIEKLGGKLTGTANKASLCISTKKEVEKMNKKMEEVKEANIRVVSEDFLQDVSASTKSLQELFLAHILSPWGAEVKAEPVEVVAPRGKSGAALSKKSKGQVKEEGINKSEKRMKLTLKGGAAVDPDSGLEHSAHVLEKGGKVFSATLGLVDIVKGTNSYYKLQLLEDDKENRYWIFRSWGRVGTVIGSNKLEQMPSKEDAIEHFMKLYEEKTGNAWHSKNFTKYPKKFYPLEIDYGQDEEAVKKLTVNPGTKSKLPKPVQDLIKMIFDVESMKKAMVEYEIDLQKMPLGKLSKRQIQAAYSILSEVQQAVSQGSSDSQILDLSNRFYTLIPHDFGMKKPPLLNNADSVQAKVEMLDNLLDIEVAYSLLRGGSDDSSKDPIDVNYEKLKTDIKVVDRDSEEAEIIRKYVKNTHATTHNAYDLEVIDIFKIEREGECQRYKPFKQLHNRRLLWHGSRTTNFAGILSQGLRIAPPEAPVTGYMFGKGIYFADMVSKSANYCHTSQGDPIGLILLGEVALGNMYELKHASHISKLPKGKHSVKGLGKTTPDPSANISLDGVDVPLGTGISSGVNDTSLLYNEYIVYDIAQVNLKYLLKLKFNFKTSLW
Method for subcutaneous FaDu tumors: Animals were sacrificed 90 minutes post-injection and tumors, tongues, trachea, and muscle were excised and imaged using epifluorescence imaging (IVIS Spectrum, PerkinElmer, Waltham, Mass.). […] This measure carries the unit [p/s/cm^2/sr]/[μW/cm^2] and is defined as the number of photons per second leaving a square centimeter of tissue and radiating into a solid angle of one steradian (sr).

As to `Cc1cc(C)n2c1C=C1C=CC(CCC(=O)N3CCN(C(=O)c4cc(Cc5n[nH]c(=O)c6ccccc56)ccc4F)CC3)=[N+]1[B-]2(F)F` [PARPi-fl], the “average cellular drug concentration” value in the data set with tumor cells (tumor cells in vivo after bolus dose, FIG. 9B) is 1.2 µM. For the same compound, in the data set with tumor cells (uptake within tumor tissue), the “cells targeted within tumor tissue” value is reported as “greater than 99.8%” and the “concentration in targeted tumor cells” value turned out to be 1900 ± 500 nM. Besides, in [1] (mice, 30 min post injection), the metabolites result is given as “less than 50%”. In [1] (mice, IV injection, clearance from circulation), this compound registered a β half-life of 1.47 h. For the same compound, the “time of peak uptake in subcutaneous tumors” value in [1] (post injection) came out at 30 min. Besides, the “co-localization with PARP1 antibody staining, Rcoloc.” value on PARP1 was found to be 0.986. Also, the average signal intensity in the data set with FaDu tumors (FaDu tumors) was 35.4±8.6 AU. This compound also had an average signal intensity in the data set with FaDu tumors (thigh muscle) of 15.1±2.4 AU. Further, the average signal intensity in the data set on FaDu tumors (tongue) is recorded as 18.5±6.9 AU. Also, in data set [2], the “penetration depth into tumor tissue” value is recorded as “up to 300 μm”. This compound also had an IC50 with U87 cells of 24 µM. This compound displayed an IC50 in the data set on U251 cells of 5.5 µM. For the same compound, in data set [3] (setting [6]), the “changes in clinical chemical and hematologic parameters” value was “no changes”; the local irritation entry is reported as “no local irritation”. Besides, in [3] (setting [7]), the ALP is 90 ± 18 IU/L, the “ALT (SGPT)” value is given as 31 ± 6 IU/L, the “AST (SGOT)” value came out at 67 ± 4 IU/L and the Albumin came out at 2.7 ± 0.2 g/dL. Besides, in data set [3] (setting [7]), the BA % is listed as 0.2 ± 0.3%, the BASOPHILS was found to be 0.01 ± 0.02 K/μL, the BUN was 28 ± 2 mg/dL and the Calcium is 9.6 ± 0.2 mg/dL. In data set [3] (setting [7]), the Chloride stood at 114 ± 1 mEq/L, the Cholesterol is 86 ± 8 mg/dL, the Creatinine was 0.24 ± 0.01 mg/dL and the EO % was found to be 5.5 ± 1.0%. In data set [3] (setting [7]), this compound yielded an EOSINOPHIL of 0.64 ± 0.55 K/μL, a GGT of 0 IU/L, a Globulin of 2.3 ± 0.7 g/dL and a Glucose of 229 ± 54 mg/dL. Also, in data set [3] (setting [7]), the HB is reported as 15.1 ± 0.9 g/dL, the HCT was 50.4 ± 2.9%, the LY % is listed as 57.0 ± 10.9% and the LYMPHOCYT is given as 3.34 ± 1.07 K/μL. In data set [3] (setting [7]), this compound showed an MCH of 14.7 ± 0.4 pg, an MCHC of 30.0 ± 0.1 g/dL, an MCV of 49.3 ± 1.2 fL and an MO % of 1.9 ± 0.8%. In data set [3] (setting [7]), this compound had an MONOCYTE of 0.10 ± 0.04 K/μL, an MPV of 6.1 ± 0.2 fL, an NE % of 29.5 ± 4.0% and an NEUTROPHI of 1.69 ± 0.04 K/μL. For the same compound, in data set [3] (setting [7]), the PLT was 1077 ± 171 K/μL, the Phosphorus came to 6 ± 1 mg/dL, the Potassium worked out at 3.8 ± 0.7 mEq/L and the RBC came out at 10.24 ± 0.62 M/μL. In data set [3] (setting [7]), the RDW was 23.4 ± 0.6%, the Sodium came to 151 ± 3 mEq/L, the “Total Bilirubin” value was 0.1 ± 0.0 mg/dL and the “Total Protein” value worked out at 4.9 ± 0.8 g/dL. In data set [3] (setting [7]), this compound came in with a WBC of 5.78 ± 0.90 K/μL. In addition, the “PARPi-fl signal compared to non-irradiated cells” value in the data set on Ca127 cells (setting [8]) is 136.0±16.6%. Also, the “PARPi-fl signal compared to non-irradiated cells” value in the data set with FaDu cells (setting [8]) was 145.4±7.3%. The compound also gave a tissue permeability in the data set “tissue permeability” of 4.7±2.5 μm/s.

Take `O=C(c1cc(Cc2n[nH]c(=O)c3ccccc23)ccc1F)N1CCN(C(=O)C2CC2)CC1` [olaparib, 4-[(3-[(4-cyclopropyl-carbonyl)piperazin-4-yl]carbonyl)-4-fluorophenyl]methyl (2H)phthalazin-1-one]: the IC50 in the data set with U87 cells (Homo sapiens, U-87 MG) worked out at 28 µM; in the data set on U251 cells (Homo sapiens, U-251), 8 µM. The “effect on PARPi-fl uptake” value in the data set on Ca127 cells (setting [9]) and in the data set on FaDu cells (setting [9]) was “almost completely suppressed” throughout. Moreover, in data set [4] (^14C-labeled olaparib, within 7 days), the excreted entry was “More than 86%”. Also, the terminal half-life in data set [4] (after a 400 mg dose) is 11.9 h. The tolerability entry in data set [4] (approved dose and schedule, 400 mg orally twice daily) is reported as “well tolerated”. Also, the “apparent volume of distribution” value in data set [4] (oral administration) is reported as “more than 150 L”. The “time of peak plasma concentrations after dosing” value in data set [4] (oral administration) is 1 to 3 h. The “inhibition of PARPi-fl tumor uptake by xenografts” value in the data set on subcutaneous FaDu tumors (coinjection with PARPi-fl) is recorded as “almost completely inhibited”. Further, the “reduction of the fluorescent signal of the tumor” value in the data set with subcutaneous FaDu tumors (olaparib injected before PARPi-fl (50-fold excess, 30 min prior)) is given as 60%.

The compound `CC1=CC(C)=[N+]2C1=Cc1ccc(CCC(=O)N3CCN(C(=O)c4cc(Cc5n[nH]c(=O)c6ccccc56)ccc4F)CC3)n1[B-]2(F)[18F]` (stereo not shown) [^18F-PARPi] had a bone uptake in [5] of 6 % ID/g.
